This is an account of results in PubChem BioAssay (NCI).

Where “and” joins values, the source holds several entries; their conditions need not be identical. Equal values may be shown once.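 Following 48 hours of exposure in 96-well plates, responses at five concentrations were used to interpolate endpoints linearly. Abbreviation: GI50, concentration required for 50% inhibition of growth. TGI: total growth inhibition.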

Holding throughout (assay): NCI anticancer screen, dose series, 48 h
Experiment [1] relates to A498 renal.
Experiment [2] deals with NCI-H23 lung.
For experiment [3], the system named is SR leukemia.
Experiment [4] has as its system UACC-257 melanoma.
Experiment [5] has as its system KM12 colon.
Experiment [6] concerns SK-OV-3 ovarian.
For experiment [7], the system named is SK-MEL-5 melanoma.
Experiment [8] has as its system NCI-H522 lung.
Experiment [9] deals with SF-539 CNS.
For experiment [10], the system named is MALME-3M melanoma.

On to `Nc1nc(OCc2ccccc2)nc2[nH]ncc12`, for which the GI50 in [1] was 11.2 µM; in experiment [2], 15.7 µM; in [3], 5.59 µM; in experiment [4], 19 µM; in [5] it was 16.2 µM; in [6] it was 18.6 µM. Moreover, the GI50 in experiment [7] is 14.9 µM; in experiment [8], 25.5 µM; in experiment [9], 23.3 µM. For the same compound, the TGI in experiment [1] stood at 26.4 µM; in experiment [2], 32.7 µM; in experiment [3] it was 30.5 µM; in experiment [4] it was 37.1 µM; in experiment [5], 34.5 µM; in experiment [6], 49.8 µM. The TGI is 28.3 µM in experiment [7], more than 100 µM in experiment [8] and 47.7 µM in experiment [9].

On to `C=C(C)[C@@H]1CC[C@@]2(C)[C@H]1[C@H]1CCC3[C@@]4(C)CC[C@H](O)C(C)(C)[C@@H]4CC[C@@]3(C)[C@]1(C)C[C@@H]2O` (stereo partly specified), for which the TGI in experiment [1], in experiment [2], in experiment [3], in [4], in [5] and in [10] was more than 100 µM each time. Moreover, the TGI in [7] was 57.2 µM; in [8] it was more than 100 µM; in [9] it was more than 100 µM.

On to `CCc1c2c(nc3cccc(N)c13)-c1cc3c(c(=O)n1C2)COC(=O)[C@]3(O)CC`, for which the GI50 in experiment [1] was 0.0569 µM; in experiment [2] it was 0.00327 µM; in experiment [3], less than 0.001 µM; in experiment [5], 0.159 µM; in [10] it was 0.0448 µM and 0.011 µM; in [6] it was 0.00719 µM. In addition, the GI50 in experiment [7] is 0.00329 µM; in [8] it was 0.00459 µM; in experiment [9], less than 0.001 µM. The TGI in [1] is 0.487 µM and 0.0609 µM; in experiment [10], 2.3 µM and 3.11 µM; in experiment [6], 4.13 µM and 13 µM; in experiment [9], 0.00491 µM.

`C[C@H](CSC(=O)c1ccccc1)C(=O)N1c2ccccc2C[C@H]1C(=O)O`: the TGI is more than 100 µM in experiment [1]; more than 100 µM in experiment [2]; more than 100 µM in experiment [3]; more than 100 µM in [4]; more than 10 µM in experiment [5]; more than 100 µM in [6]. The TGI in experiment [7], in experiment [8] and in experiment [9] was more than 100 µM throughout.

In the case of `Cc1ccc2c(c1)ncn2-c1ncnc2c1CC(C)c1ccccc1N2C` (stereo unspecified), the GI50 in [1] was 0.0567 µM; in [2], 0.428 µM; in [3], 0.0362 µM; in experiment [5] it was 0.106 µM; in [10], 0.0513 µM; in experiment [6] it was 0.139 µM. For the same compound, the GI50 in experiment [7] was 0.138 µM; in [8] it was 0.121 µM; in [9], 0.0896 µM. Besides, the TGI in experiment [1] amounted to 17 µM; in experiment [2], 19.4 µM; in [3], 1.98 µM; in experiment [5], 14.6 µM; in experiment [10], 4.6 µM; in [6] it was 17.7 µM. Besides, the TGI in experiment [7] amounted to 1.32 µM; in experiment [8] it was 5.68 µM; in experiment [9], 11.6 µM.

For `O=[N+]([O-])c1nccn1CC1OC(n2ccnc2[N+](=O)[O-])C(O)C(O)C1O` (stereo unspecified), the TGI in experiment [1], in experiment [2], in experiment [3], in [4], in experiment [5] and in experiment [10] was more than 100 µM each time. The compound also came in with a TGI in experiment [7] of more than 100 µM.

Take `Cn1cc(-c2ccc3c(c2)CCN3C(=O)Cc2cccc(C(F)(F)F)c2)c2c(N)ncnc21`: the GI50 in [1] is 0.453 µM; in experiment [2] it was 4.43 µM; in experiment [3] it was 2.38 µM; in experiment [4] it was 5.37 µM; in [5], 0.401 µM; in experiment [10], 2.03 µM. Besides, the GI50 in experiment [6] was 1.26 µM; in experiment [8], 10.1 µM; in experiment [9], 1.95 µM. In addition, the TGI came to 6.56 µM in [1]; 24.2 µM in [2]; 23.4 µM in experiment [3]; 24.3 µM in experiment [4]; 15.5 µM in experiment [5]; 13.3 µM in experiment [10]. In addition, the TGI in [6] was 8.14 µM; in [8], 29 µM; in [9], 11.8 µM.

On to `COc1cc(Oc2c(O)c(C)c(OC)c(C(C)=O)c2O)c(C(C)=O)c(O)c1C`, for which the TGI is 94.9 µM in [2]; more than 100 µM in [3]; more than 100 µM in [4]; more than 100 µM in [5]; more than 100 µM in experiment [10]; more than 100 µM in [6]. In addition, the TGI in [7] is more than 100 µM; in [8] it was 77.9 µM; in experiment [9] it was more than 100 µM.

With `O=C1c2ccccc2C(=O)C1C(c1ccc([N+](=O)[O-])cc1)C1C(=O)c2ccccc2C1=O`, the TGI in experiment [2], in [3], in experiment [4], in experiment [5], in experiment [10] and in [6] was more than 100 µM throughout. In addition, the TGI in experiment [7], in [8] and in experiment [9] was more than 100 µM throughout.

`COc1ccc(/C=C2\CCCC3=C2NC(C)=NC3c2ccc(OC)c(OC)c2)cc1OC` (stereo unspecified): the GI50 in [1] is 16.4 µM; in experiment [2], 28.6 µM; in experiment [3] it was 1.99 µM; in experiment [4], 10.9 µM; in [5] it was 61.2 µM; in experiment [10] it was 22.2 µM. The GI50 in [6] is 19.2 µM; in experiment [7] it was 9.43 µM; in [9], 27.5 µM. Moreover, the TGI in experiment [1], in [2], in [3], in experiment [4], in [5] and in [10] was more than 100 µM in each case. For the same compound, the TGI in [6], in experiment [7] and in experiment [9] was more than 100 µM in each case.

Turning to `CC[CH2][Pb]([CH2]CC)([CH2]CC)[NH]S(=O)(=O)c1ccc(C)cc1`, the GI50 is 0.0215 µM in experiment [1]; 0.0178 µM in [2]; 0.0522 µM in experiment [3]; 0.0773 µM in experiment [4]; 0.147 µM in experiment [5]; 0.0431 µM in [10]. In addition, the GI50 in experiment [6] is 0.0788 µM; in [7], 0.0555 µM; in [9], 0.0659 µM. The TGI in experiment [1] was 0.058 µM; in experiment [2] it was 0.0375 µM; in experiment [3], 0.279 µM; in [4], 0.245 µM; in experiment [5] it was 0.312 µM; in experiment [10], 0.174 µM. Moreover, the results for the TGI in experiment [6], in experiment [7] and in experiment [9] were 0.276 µM, 0.142 µM and 0.155 µM, respectively.

For the compound `O=C(Cc1ccccc1)N/N=C(\C1=Nc2ccc([N+](=O)[O-])cc2NC1O)C(O)c1ccc([N+](=O)[O-])cc1` (stereo unspecified), the TGI in experiment [1], in [2], in experiment [3], in experiment [4], in experiment [10] and in experiment [6] was more than 100 µM throughout. Moreover, the TGI in experiment [7], in [8] and in experiment [9] was more than 100 µM throughout.

Regarding `COc1ccc2c(C(=O)O)cc3cc(OC)c(OC)cc3c2c1`, the TGI in experiment [2], in experiment [3], in [4], in experiment [5], in [10] and in experiment [6] was more than 100 µM throughout. Also, the TGI in experiment [7], in experiment [8] and in experiment [9] was more than 100 µM in each case.

With `CCOC(=O)N1C2C=C(C)C(C3C(C)C(=O)N31)N(C(=O)c1ccccc1)O2` (stereo unspecified), the TGI in [1], in experiment [2], in experiment [3], in [4], in [5] and in experiment [10] was more than 100 µM in each case. Besides, the TGI in experiment [6], in [7] and in experiment [9] was more than 100 µM in each case.

`Cn1cc(-c2ccc(CNc3cc(-c4cnc5cc(OCCCN6CCCC6)ccn45)ncn3)cc2)cn1`: the GI50 is 16.2 µM in experiment [1]; 2.17 µM in [3]; 2.23 µM in experiment [4]; 1.86 µM in [5]; 1.28 µM in [10]; 23 µM in experiment [6]. Besides, the GI50 in experiment [7] is 1.51 µM; in [8], 18.6 µM; in experiment [9], 1.17 µM. Also, the TGI in [1] is 31.9 µM; in experiment [3], 7.12 µM; in experiment [4] it was 5.5 µM; in [5], 3.68 µM; in experiment [10], 2.94 µM; in [6], 43.3 µM. For the same compound, the TGI came out at 2.85 µM in [7], 37.8 µM in experiment [8] and 2.46 µM in experiment [9].

With `CC(C)=CC(=O)CC(=O)C(=O)Nc1ccc(Cl)c(Cl)c1`, the TGI in experiment [1], in experiment [2], in [3], in experiment [4], in experiment [5] and in experiment [10] was more than 100 µM throughout. Moreover, the TGI in experiment [6], in experiment [8] and in experiment [9] was more than 100 µM in each case.

`FC(F)(F)C12C34C=CC5(CCC6(C=CC1(CC3)O6)C52C(F)(F)F)O4` (stereo unspecified): the TGI in [1], in experiment [2], in experiment [3], in [4], in experiment [5] and in experiment [10] was more than 100 µM throughout. Further, the TGI in experiment [6], in experiment [8] and in experiment [9] was more than 100 µM in each case.

As to `CCOC(=O)c1c(C)n(Cc2ccc(Cl)cc2Cl)c2c1cc1oc(=O)c(=O)n3c(Cc4ccccc4)nc2c13`, the GI50 in experiment [2] was 2.8 µM; in [3] it was 0.378 µM; in [4], 17.3 µM; in experiment [5], 1.63 µM; in experiment [10], 5.3 µM; in [6], 15.3 µM. The GI50 in experiment [7] was 1.97 µM; in experiment [8] it was 6.1 µM; in [9] it was 8.44 µM. For the same compound, the TGI in [2] was found to be 7.3 µM; in [3], 2.38 µM; in experiment [4] it was 36.3 µM; in [5] it was 3.47 µM; in [10], 12.9 µM; in [6] it was 30.7 µM. In addition, the TGI in experiment [7] was determined as 3.54 µM; in experiment [8], 25.5 µM; in experiment [9], 20.7 µM.

`N#Cc1ccccc1NC(=O)c1ccccc1`: the TGI in experiment [1], in [2], in [3], in [4], in [5] and in [10] was more than 100 µM in each case. Further, the TGI in experiment [7] and in experiment [9] was more than 100 µM in each case.

With `C=C(N=[N+]=[N-])c1cn(C2CC(O)C(CO)O2)c(=O)[nH]c1=O` (stereo unspecified), the TGI in experiment [2], in experiment [3], in experiment [5], in experiment [10], in [6] and in experiment [7] was more than 100 µM throughout. In addition, the TGI in [8] and in experiment [9] was more than 100 µM each time.

Consider `COc1cnc2c(c1)C(=O)c1c-2n(CCCN2CCCC2)c(=O)c2cc(Cl)ccc12`, for which the GI50 in [1] is 0.384 µM; in experiment [2], 0.857 µM; in [3], 0.0499 µM; in experiment [4] it was 7.85 µM; in experiment [5], 2.11 µM; in experiment [10] it was 5.9 µM. Moreover, the GI50 in experiment [6] is 1.47 µM; in experiment [7], 2.54 µM; in experiment [8] it was 0.27 µM. The TGI in [1] was 6.01 µM; in [2], 9.16 µM; in [3] it was 7.9 µM; in [4] it was 21.6 µM; in experiment [5], 10.3 µM; in experiment [10], 15.3 µM. Moreover, the TGI was determined as 10.5 µM in [6], 9.48 µM in [7] and 13.8 µM in [8].
